From PMC6004248 (Clinical cancer research : an official journal of the …, 2018)
Several values for one entry are separate records, joined by “and”; a condition that tells them apart may be missing. Equal values may be shown once. Read-outs that look alike come from different tables or passages of the source.

Assays:
[1] = cited from earlier work; for patients who experienced diarrhea: in some studies
[2] = system: ALK-positive NSCLC; conditions: crizotinib-refractory population; cited from earlier work
[3] = system: ALK-positive NSCLC; conditions: cited from earlier work
[4] = system: ALK-positive NSCLC; experiment: Phase I/II trial, antitumor activity; assay type: in vivo, human
[5] = target: ALK T1151 mutant (Homo sapiens, UniProt Q9UM73); experiment: Biochemical kinase assay
[6] = target: TRKC (Homo sapiens, UniProt Q16288); experiment: Biochemical kinase assay
Sequence of TRKC (Q16288 32-839): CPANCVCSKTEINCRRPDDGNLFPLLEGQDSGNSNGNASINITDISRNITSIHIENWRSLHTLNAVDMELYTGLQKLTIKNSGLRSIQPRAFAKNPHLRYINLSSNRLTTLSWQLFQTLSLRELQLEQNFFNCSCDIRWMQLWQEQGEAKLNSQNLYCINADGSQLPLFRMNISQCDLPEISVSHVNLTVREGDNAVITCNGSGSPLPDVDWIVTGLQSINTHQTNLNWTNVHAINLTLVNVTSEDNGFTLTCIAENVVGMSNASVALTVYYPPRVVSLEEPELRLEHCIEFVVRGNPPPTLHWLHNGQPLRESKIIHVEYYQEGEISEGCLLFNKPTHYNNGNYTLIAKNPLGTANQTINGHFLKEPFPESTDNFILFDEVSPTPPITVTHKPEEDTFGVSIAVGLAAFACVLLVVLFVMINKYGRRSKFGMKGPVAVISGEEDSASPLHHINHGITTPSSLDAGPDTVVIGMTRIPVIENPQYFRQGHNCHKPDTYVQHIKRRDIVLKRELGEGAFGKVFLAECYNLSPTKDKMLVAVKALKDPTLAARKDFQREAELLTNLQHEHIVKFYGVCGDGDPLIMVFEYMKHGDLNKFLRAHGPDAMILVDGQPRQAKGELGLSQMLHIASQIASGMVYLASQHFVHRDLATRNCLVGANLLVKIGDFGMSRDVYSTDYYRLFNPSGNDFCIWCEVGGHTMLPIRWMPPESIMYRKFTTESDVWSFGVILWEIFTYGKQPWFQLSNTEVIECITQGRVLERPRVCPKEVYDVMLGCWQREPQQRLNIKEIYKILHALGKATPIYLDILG

[7] = Phase I/II trial, plasma pharmacokinetics; assay type: in vivo, human
[8] = target: T1, EphA1 (Homo sapiens, UniProt P21709); experiment: Biochemical kinase assay
T1 sequence (P21709 26-976): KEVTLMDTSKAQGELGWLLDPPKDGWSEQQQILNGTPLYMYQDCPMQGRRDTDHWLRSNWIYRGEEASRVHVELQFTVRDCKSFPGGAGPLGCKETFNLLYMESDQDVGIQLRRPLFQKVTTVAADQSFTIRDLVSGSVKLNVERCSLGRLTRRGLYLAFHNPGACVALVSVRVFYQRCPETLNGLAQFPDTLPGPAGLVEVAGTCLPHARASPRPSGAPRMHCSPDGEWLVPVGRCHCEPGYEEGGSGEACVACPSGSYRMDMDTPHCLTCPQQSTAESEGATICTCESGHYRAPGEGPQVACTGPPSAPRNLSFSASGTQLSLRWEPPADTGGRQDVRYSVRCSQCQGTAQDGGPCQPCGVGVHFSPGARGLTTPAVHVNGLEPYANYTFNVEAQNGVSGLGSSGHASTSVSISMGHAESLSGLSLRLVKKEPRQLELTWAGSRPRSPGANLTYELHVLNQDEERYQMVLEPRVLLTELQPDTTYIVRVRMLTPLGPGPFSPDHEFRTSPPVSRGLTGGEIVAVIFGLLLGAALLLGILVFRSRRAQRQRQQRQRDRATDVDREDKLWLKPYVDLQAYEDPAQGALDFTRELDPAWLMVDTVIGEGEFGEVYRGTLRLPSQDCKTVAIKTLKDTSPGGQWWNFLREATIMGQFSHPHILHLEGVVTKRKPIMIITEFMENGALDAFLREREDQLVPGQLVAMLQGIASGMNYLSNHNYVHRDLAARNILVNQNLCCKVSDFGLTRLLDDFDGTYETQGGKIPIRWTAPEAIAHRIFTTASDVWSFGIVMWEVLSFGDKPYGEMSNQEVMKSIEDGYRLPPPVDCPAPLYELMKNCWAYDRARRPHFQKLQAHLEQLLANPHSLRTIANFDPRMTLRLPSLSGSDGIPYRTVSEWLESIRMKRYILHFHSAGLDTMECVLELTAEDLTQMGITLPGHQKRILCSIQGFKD

[9] = system: ALK fusions engineered to have point mutation L1196M; conditions: mutation associated with crizotinib resistance; cited from earlier work
[10] = Phase I/II trial, safety; assay type: in vivo
[11] = target: c-MET (Homo sapiens, UniProt P08581); experiment: Biochemical kinase assay
Sequence of c-MET (P08581 25-1390): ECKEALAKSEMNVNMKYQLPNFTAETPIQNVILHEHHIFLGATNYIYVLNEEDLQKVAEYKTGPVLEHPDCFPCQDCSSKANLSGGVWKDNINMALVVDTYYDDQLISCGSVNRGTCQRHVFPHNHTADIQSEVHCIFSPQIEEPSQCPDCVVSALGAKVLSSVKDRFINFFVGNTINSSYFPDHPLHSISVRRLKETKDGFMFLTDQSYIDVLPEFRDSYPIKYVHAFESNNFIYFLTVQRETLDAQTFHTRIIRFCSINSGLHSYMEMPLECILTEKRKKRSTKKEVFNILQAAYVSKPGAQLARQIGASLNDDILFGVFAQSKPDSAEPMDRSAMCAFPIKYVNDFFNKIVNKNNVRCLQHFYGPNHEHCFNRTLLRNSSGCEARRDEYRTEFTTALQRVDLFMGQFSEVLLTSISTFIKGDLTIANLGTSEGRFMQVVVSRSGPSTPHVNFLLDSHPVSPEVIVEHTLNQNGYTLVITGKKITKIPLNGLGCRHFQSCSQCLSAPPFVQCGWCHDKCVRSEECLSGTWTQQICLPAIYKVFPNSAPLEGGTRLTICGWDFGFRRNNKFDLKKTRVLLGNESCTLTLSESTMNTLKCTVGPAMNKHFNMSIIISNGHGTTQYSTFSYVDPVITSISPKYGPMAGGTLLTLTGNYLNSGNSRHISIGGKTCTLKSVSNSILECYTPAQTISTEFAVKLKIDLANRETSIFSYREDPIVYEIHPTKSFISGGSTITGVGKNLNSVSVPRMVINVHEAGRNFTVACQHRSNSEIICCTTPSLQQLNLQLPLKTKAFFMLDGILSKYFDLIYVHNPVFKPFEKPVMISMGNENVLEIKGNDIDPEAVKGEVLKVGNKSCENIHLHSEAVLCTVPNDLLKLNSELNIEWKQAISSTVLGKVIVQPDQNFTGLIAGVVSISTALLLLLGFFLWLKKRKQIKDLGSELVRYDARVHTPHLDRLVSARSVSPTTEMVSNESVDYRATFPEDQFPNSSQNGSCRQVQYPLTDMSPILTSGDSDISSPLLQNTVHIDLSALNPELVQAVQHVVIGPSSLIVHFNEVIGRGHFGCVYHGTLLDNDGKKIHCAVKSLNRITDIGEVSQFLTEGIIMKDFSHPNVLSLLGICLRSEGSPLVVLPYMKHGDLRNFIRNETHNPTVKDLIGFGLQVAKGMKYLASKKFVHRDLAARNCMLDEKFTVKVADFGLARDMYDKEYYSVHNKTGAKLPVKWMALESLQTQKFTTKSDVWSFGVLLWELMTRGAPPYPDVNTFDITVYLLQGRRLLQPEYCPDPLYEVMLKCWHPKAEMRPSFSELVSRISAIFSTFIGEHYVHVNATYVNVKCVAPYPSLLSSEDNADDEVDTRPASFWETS

[12] = system: H3122 lung cancer xenografts (EML4-ALK E13;A20 fusion); conditions: cited from earlier work
[13] = target: wild-type ALK (Homo sapiens, UniProt Q9UM73); experiment: Biochemical kinase assay
Sequence of wild-type ALK (Q9UM73 19-1620): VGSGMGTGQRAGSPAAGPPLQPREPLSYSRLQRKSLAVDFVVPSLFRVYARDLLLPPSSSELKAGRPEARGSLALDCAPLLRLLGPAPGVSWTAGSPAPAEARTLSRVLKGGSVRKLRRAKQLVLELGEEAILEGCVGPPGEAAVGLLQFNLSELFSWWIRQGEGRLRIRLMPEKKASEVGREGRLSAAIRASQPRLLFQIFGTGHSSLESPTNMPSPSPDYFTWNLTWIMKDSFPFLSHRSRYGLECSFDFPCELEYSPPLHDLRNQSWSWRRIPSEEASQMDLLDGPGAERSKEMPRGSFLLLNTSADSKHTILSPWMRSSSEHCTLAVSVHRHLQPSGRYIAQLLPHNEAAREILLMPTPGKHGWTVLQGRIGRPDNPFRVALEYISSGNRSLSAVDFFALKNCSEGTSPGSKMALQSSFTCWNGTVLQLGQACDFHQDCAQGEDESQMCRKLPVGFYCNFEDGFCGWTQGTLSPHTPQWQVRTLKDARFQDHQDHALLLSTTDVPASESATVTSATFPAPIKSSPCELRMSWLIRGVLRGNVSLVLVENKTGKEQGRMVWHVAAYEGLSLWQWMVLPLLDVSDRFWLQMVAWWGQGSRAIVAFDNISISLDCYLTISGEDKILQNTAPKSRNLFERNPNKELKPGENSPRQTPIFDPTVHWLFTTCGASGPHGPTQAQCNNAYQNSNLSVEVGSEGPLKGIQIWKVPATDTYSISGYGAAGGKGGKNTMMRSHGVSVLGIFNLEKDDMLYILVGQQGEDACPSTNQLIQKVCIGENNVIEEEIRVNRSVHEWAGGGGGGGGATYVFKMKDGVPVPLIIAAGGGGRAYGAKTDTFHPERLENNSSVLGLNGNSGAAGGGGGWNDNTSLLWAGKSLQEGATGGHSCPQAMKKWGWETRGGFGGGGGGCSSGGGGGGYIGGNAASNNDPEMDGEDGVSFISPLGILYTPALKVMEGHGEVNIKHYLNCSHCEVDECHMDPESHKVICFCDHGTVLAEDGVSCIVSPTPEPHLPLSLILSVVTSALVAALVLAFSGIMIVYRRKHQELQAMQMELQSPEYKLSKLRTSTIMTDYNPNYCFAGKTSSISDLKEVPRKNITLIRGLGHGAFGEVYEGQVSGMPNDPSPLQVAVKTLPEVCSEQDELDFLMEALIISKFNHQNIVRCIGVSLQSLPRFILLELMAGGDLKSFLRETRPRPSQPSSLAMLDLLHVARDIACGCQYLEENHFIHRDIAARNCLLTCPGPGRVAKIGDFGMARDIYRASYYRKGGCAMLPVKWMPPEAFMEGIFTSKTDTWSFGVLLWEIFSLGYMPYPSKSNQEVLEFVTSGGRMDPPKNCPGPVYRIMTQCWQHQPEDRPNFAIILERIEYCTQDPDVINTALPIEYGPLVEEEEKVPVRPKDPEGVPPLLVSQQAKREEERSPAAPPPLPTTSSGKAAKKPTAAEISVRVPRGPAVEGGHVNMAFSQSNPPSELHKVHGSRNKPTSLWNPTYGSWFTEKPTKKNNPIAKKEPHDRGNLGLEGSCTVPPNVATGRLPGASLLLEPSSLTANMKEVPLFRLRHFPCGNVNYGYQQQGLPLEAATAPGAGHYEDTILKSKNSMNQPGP

[14] = target: EphA2 (Homo sapiens, UniProt P29317); experiment: Biochemical kinase assay
Sequence of EphA2 (P29317 24-976): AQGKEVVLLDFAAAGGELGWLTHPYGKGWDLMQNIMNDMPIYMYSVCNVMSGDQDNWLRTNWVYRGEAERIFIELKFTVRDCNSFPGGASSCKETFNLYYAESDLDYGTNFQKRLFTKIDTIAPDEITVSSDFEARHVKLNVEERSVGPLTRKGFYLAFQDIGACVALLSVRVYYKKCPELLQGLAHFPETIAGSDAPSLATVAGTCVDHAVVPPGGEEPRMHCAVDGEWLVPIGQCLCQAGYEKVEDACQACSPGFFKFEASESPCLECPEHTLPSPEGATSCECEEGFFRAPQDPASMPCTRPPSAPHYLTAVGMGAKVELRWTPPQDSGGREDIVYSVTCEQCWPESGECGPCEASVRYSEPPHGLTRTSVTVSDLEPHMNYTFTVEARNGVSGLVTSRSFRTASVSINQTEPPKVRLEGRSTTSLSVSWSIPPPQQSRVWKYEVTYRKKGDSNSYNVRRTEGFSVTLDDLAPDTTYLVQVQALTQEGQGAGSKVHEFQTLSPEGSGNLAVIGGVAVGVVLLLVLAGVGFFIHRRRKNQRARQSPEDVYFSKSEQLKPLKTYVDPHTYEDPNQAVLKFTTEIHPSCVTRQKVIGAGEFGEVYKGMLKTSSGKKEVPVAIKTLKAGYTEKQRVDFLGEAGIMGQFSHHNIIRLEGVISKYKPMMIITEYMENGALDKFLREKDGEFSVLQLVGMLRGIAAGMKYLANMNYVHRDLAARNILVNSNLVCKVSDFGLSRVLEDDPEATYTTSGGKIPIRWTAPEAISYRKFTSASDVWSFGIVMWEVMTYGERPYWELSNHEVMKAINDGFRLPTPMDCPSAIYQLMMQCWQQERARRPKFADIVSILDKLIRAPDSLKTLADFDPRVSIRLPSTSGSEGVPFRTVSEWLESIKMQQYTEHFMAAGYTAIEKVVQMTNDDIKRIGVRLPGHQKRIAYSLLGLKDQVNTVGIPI

[15] = system: ALK fusions engineered to have point mutation C1156Y; conditions: mutation associated with crizotinib resistance; cited from earlier work
[16] = target: T2, EphB1 (Homo sapiens, UniProt P54762); experiment: Biochemical kinase assay
T2 sequence (P54762 18-984): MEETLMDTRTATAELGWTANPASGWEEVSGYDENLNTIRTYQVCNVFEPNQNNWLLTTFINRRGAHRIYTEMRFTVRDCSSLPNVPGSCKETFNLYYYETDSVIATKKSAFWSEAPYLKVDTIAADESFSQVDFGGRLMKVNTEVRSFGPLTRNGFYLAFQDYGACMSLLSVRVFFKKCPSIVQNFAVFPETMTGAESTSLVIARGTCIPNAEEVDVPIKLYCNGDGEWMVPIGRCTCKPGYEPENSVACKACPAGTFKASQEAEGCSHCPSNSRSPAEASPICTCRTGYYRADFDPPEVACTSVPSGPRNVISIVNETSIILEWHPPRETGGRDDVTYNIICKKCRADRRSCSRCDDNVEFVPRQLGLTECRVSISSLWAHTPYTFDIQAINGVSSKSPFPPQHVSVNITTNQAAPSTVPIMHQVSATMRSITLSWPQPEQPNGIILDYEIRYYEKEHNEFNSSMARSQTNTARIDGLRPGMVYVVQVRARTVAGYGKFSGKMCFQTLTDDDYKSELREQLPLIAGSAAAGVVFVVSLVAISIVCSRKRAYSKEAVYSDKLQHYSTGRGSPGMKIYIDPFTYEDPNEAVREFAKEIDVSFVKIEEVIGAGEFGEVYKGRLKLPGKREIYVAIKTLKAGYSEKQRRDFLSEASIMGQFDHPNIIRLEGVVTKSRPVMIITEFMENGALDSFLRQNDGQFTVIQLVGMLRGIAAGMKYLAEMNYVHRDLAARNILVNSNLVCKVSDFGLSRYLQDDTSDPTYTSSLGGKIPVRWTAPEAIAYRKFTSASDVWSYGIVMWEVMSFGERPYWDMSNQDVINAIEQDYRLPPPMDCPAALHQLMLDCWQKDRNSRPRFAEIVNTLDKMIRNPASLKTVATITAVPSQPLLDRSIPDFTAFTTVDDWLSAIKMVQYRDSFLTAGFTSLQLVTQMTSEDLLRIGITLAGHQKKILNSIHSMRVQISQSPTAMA

[17] = target: ALK C1156Y mutant (Homo sapiens, UniProt Q9UM73, C1156Y); experiment: Biochemical kinase assay
Sequence of ALK C1156Y mutant (Q9UM73 19-1620 C1156Y): as the sequence (Q9UM73 19-1620) above, with C1138Y counted along it

[18] = target: GOPC-ROS1 (Homo sapiens, UniProt P08922); experiment: Biochemical kinase assay
[19] = target: ALK S1206R mutant (Homo sapiens, UniProt Q9UM73, S1206R); experiment: Biochemical kinase assay
Sequence of ALK S1206R mutant (Q9UM73 19-1620 S1206R): as the sequence (Q9UM73 19-1620) above, with S1188R counted along it

[20] = system: ALK-positive lung cancer cell lines; conditions: cited from earlier work
[21] = target: TPM3-TRKA (Homo sapiens, UniProt P04629); experiment: Biochemical kinase assay
[22] = target: ALK variants; experiment: Biochemical kinase assay; conditions: read-out: in vitro IC50s, all evaluated ALK variants; wild-type ALK and 17 ALK variants
[23] = target: ALK L1196M mutant (Homo sapiens, UniProt Q9UM73, L1196M); experiment: Biochemical kinase assay
Sequence of ALK L1196M mutant (Q9UM73 19-1620 L1196M): as the sequence (Q9UM73 19-1620) above, with L1178M counted along it

[24] = target: ALK F1174 mutant (Homo sapiens, UniProt Q9UM73); experiment: Biochemical kinase assay
[25] = ALK-positive efficacy evaluable patients, ≥200 mg, n=60
[26] = patients with baseline CNS target lesions, n=14, ≥200 mg
[27] = prior crizotinib and at least one second-generation ALK TKI, n=16

COc1cc(N2CCC(N3CCN(C)CC3)CC2)ccc1Nc1ncc(Cl)c(Nc2ccccc2P(C)(C)=O)n1 [brigatinib]
patients who experienced diarrhea [1]: 41%
RR [2]: 54%
median PFS [2]: 12.9 months

Cc1cc(Nc2ncc(Cl)c(Nc3ccccc3S(=O)(=O)C(C)C)n2)c(OC(C)C)cc1C1CCNCC1 [ceritinib]
patients discontinuing therapy [3]: 10%
patients who experienced a SAE [3]: 38%
patients with a dose interruption [3]: 66%
RR ([3]; first line): 73%
intracranial response ([3]; first line): 57%
median PFS ([3]; first line): 16.6 months
patients with vomiting [1]: majority of patients
patients who experienced diarrhea [1]: 75%

C[C@@H]1CN(C(=O)c2ccc(NC(=O)c3cc(O[C@H](C)c4c(Cl)ccc(F)c4Cl)c(N)nn3)cc2)C[C@H](C)N1 [ensartinib]
median DOR ([4]; ALK TKI naïve patients, n=12): 24.4 months
median PFS ([4]; ALK TKI-naïve patients): 26.2 months
disease control rate (DCR) ([4]; ALK TKI-naïve patients, n=15): 86.7%
response rate (RR) ([4]; ALK TKI-naïve patients, n=15): 80%
disease control rate (DCR) [4, 25]: 81.7%
patients with tumor regression [4, 25]: 80%
median DOR ([4]; ALK-positive evaluable patients, n=35): 12.8 months
median PFS ([4]; ALK-positive evaluable patients, ≥200 mg): 9.2 months
median DOR ([4]; crizotinib and a second-generation ALK TKI, n=4): 4.4 months
intracranial DCR [4, 26]: 92.9%
intracranial response rate [4, 26]: 64% and 64.3%
patients with intracranial tumor regression [4, 26]: 78.6%
disease control rate (DCR) [4, 27]: 50.0%
response rate (RR) [4, 27]: 25%
median PFS ([4]; prior crizotinib only): 9.0 months
median DOR ([4]; prior crizotinib only, n=19): 7.4 months
disease control rate (DCR) ([4]; prior crizotinib only, n=29): 96.6%
response rate (RR) ([4]; prior crizotinib only, n=29): 69%
median intracranial DOR ([4]; responding patients with CNS target lesions at baseline, n=9, ≥200 mg): 5.7 months
IC50 [5]: < 0.4 nM
IC50 [6]: < 1 nM
impact of food on absorption ([7]; 225 mg, food consumed within 30 minutes after taking ensartinib): minimal impact
increase in mean day 22 AUC from 225 to 250 mg ([7]; fasted, 11% increase in dose): 36%
dose proportionality of mean day 22 Cmax and AUC ([7]; fasted, 200-225 mg): slightly more than dose proportionally
dose proportionality of mean day 22 Cmax and AUC ([7]; fasted, 225-250 mg): significantly more than dose proportionally
dose proportionality of mean day 22 Cmax and AUC ([7]; human, in vivo): increased dose proportionally
IC50 [8]: 1 to 10 nM
inhibition of ALK fusion with L1196M [9]: potently inhibited
maximum tolerated dose ([10]; 25-250 mg once daily): not reached
deaths related to ensartinib ([10]; as considered by the sponsor): no deaths
Constipation, All grades ([10]; human, in vivo): 11 (11%)
Constipation, Grade ≥3 ([10]; human, in vivo): 0
Decreased Appetite, All grades ([10]; human, in vivo): 18 (19%)
Decreased Appetite, Grade ≥3 ([10]; human, in vivo): 1 (1%)
Diarrhea, All grades ([10]; human, in vivo): 11 (11%)
Diarrhea, Grade ≥3 ([10]; human, in vivo): 0
Dry Skin, All grades ([10]; human, in vivo): 14 (14%)
Dry Skin, Grade ≥3 ([10]; human, in vivo): 1 (1%)
Edema, All grades ([10]; human, in vivo): 15 (15%)
Edema, Grade ≥3 ([10]; human, in vivo): 1 (1%)
Elevated aspartate aminotransferase, All grades ([10]; human, in vivo): 12 (12%)
Elevated aspartate aminotransferase, Grade ≥3 ([10]; human, in vivo): 1 (1%)
Fatigue, All grades ([10]; human, in vivo): 21 (22%)
Fatigue, Grade ≥3 ([10]; human, in vivo): 2 (2%)
Nausea, All grades ([10]; human, in vivo): 35 (36%)
Nausea, Grade ≥3 ([10]; human, in vivo): 1 (1%)
Pruritus, All grades ([10]; human, in vivo): 27 (28%)
Pruritus, Grade ≥3 ([10]; human, in vivo): 5 (5%)
Rash, All grades ([10]; human, in vivo): 54 (56%)
Rash, Grade ≥3 ([10]; human, in vivo): 12 (12%)
Vomiting, All grades ([10]; human, in vivo): 25 (26%)
Vomiting, Grade ≥3 ([10]; human, in vivo): 1 (1%)
drug-related diarrhea ([10]; human, in vivo): 11%
patients permanently discontinued due to related toxicity ([10]; human, in vivo): 5.2%
patients requiring at least one dose reduction due to treatment-related toxicity ([10]; human, in vivo): 25%
patients with treatment-related Grade 3-4 AEs ([10]; human, in vivo): 23%
treatment-related fatigue ([10]; human, in vivo): 22%
treatment-related nausea ([10]; human, in vivo): 36%
treatment-related pruritus ([10]; human, in vivo): 28%
treatment-related vomiting ([10]; human, in vivo): 26%
recommended phase II dose (RP2D) ([10]; human, in vivo, 28 days): 225 mg
patients who died while on study ([10]; n=97): Five
IC50 [11]: 1 to 10 nM
antitumor activity in xenografts [12]: potent antitumor activity
IC50 [13]: < 0.4 nM
IC50 [14]: 1 to 10 nM
inhibition of ALK fusion with C1156Y [15]: potently inhibited
IC50 [16]: 1 to 10 nM
IC50 [17]: < 0.4 nM
IC50 [18]: < 1 nM
IC50 [19]: < 0.4 nM
potency relative to crizotinib at inhibiting growth [20]: 10 fold
IC50 [21]: < 1 nM
IC50 [22]: < 4 nM
IC50 [23]: < 0.4 nM
IC50 [24]: < 0.4 nM
